According to publication PMC4193777 (PLoS ONE, 2014):

Experiments:
[1] = target: T1, FPR2 (Homo sapiens, UniProt P25090); assay: Homologous desensitization of neutrophils (superoxide); type: cell-based; details: first F2Pal10 (500 nM) then WKYMVM (40 nM), or reversed order, five minutes apart
T1 construct: Human peripheral blood neutrophils were isolated from buffy coats from healthy blood donors; endogenous in cells; host or cells: primary human peripheral blood neutrophils from buffy coats of healthy donors
T1 sequence (P25090 1-351): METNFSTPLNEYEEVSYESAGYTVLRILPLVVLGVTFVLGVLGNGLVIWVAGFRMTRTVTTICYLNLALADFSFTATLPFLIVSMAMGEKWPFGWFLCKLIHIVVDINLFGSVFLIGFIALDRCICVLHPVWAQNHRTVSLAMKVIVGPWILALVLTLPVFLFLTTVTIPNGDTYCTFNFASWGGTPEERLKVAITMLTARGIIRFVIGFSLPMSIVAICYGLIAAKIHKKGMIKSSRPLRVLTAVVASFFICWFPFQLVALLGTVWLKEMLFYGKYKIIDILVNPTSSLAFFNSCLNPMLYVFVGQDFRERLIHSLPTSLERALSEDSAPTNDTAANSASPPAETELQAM
Protocol: Human peripheral blood neutrophils were isolated from buffy coats from healthy blood donors using dextran sedimentation and Ficoll-Paque gradient centrifugation as described. The remaining erythrocytes were disrupted by hypotonic lysis, the neutrophils were washed twice, resuspended in KRG, and stored on melting ice until use. This isolation procedure permits cells to be purified with minimal granule mobilization.
The NADPH-oxidase activity was determined using isoluminol-enhanced chemiluminescence (CL), [27]. The CL activity was measured in a six-channel Biolumat LB 9505 (Berthold Co., Wildbad, Germany), using disposable 4-ml polypropylene tubes with a 900 µl reaction mixture containing 10^5 cells, isoluminol (2×10^−5 M) and HRP (2 U). The tubes were equilibrated in the Biolumat for 5 min at 37°C, after which the stimulus (100 µl) was added and the light emission was recorded continuously. […]
Figure 1 The F2Pal10 pepducin specifically activates FPR2. A. Primary human neutrophils were activated by F2Pal10 (500 nM) in the absence (solid line) or presence of the receptor specific inhibitor PBP10 (FPR2 specific inhibitor; 1 µM final concentration, dashed line) or the FPR1 antagonist cyclosporin H (CysH; 1 µM final concentration, dotted line) and the release of superoxide anions was recorded continuously. […] The release of superoxide anions was recorded continuously. […]

[2] = system: neutrophils; assay: Calcium mobilization in neutrophils; type: cell-based, human; details: WKYMVM 100 nM or F2Pal10 500 nM
Protocol: Neutrophils or transfected HL-60 cells at a density of 5×10^7 cells/ml in KRG containing 0.1% BSA were loaded with 5 µM FURA 2-AM for 30 minutes in the dark at room temperature. The cells were then diluted 1/2 in RPMI 1640 culture medium without phenol red (PAA Laboratories GmbH, Pasching, Austria) and centrifuged. Finally, the cells were washed once with KRG and resuspended in the same buffer at a density of 2×10^7/ml. Calcium measurements were carried out in a PerkinElmer fluorescence spectrophotometer (LC50), with excitation wavelengths of 340 nm and 380 nm, an emission wavelength of 509 nm, and slit widths of 5 nm and 10 nm, respectively. The transient rise in intracellular calcium is presented as the ratio of fluorescence intensities (340 nm: 380 nm) detected. The measuring cuvette contained catalase (2000 U) to counteract inactivation of the chemoattractants by the MPO-H2O2-system. […] The relative calcium level was expressed as a ratio between Fluo-3 and Fura Red (FL-1/FL-3) fluorescence over time.
Figure 5 F2Pal10 induces pertussis toxin sensitive superoxide production and triggers mobilization of calcium from intracellular stores. […] Abscissa, time of study (sec); ordinate, fluorescence (arbitrary unit). […]

CSCC[C@H](NC(=O)[C@@H](NC(=O)[C@H](CCSC)NC(=O)[C@H](Cc1ccc(O)cc1)NC(=O)[C@H](CCCCN)NC(=O)[C@@H](N)Cc1c[nH]c2ccccc12)C(C)C)C(N)=O [WKYMVM]
desensitization to second FPR2 agonist [1]: vice versa | rise in cytosolic Ca2+ in neutrophils ([2]; Fluo-3/Fura Red, without EGTA): a rise in the cytosolic concentration of Ca^2+ was induced | rise in cytosolic Ca2+ in neutrophils, with EGTA ([2]; extracellular Ca2+ removed by EGTA (2 mM)): The rise was evident also when extracellular Ca^2+ was removed
